# Reference: ChEMBL document CHEMBL3885881, “DrugMatrix”
# Species: Rattus norvegicus
# Assay: DrugMatrix - Regimen: Daily Repeat
# Type: toxicity, organism-based, Sprague-Dawley
# Parameters: regimen Daily Repeat, gender Male, age 6-8 weeks
# Conditions: in vivo, po, 1000 mg/kg, route oral GAVAGE, dose level High, vehicle 100 % WATER; for ABSOLUTE BASOPHIL / ABSOLUTE EOSINOPHIL / ABSOLUTE LYMPHOCYTE / ABSOLUTE MONOCYTE / ABSOLUTE SEGMENTED NEUTROPHIL / BASOPHIL / EOSINOPHIL / ERYTHROCYTE COUNT / HEMATOCRIT / HEMOGLOBIN / LEUKOCYTE COUNT / LYMPHOCYTE / MEAN CORPUSCULAR HEMOGLOBIN / MEAN CORPUSCULAR HEMOGLOBIN CONCENTRATION / MEAN CORPUSCULAR VOLUME / MONOCYTE / NEUTROPHIL / NUCLEATED RED BLOOD CELLS / PLATELET COUNT: tissue Blood; for ALANINE AMINOTRANSFERASE / ALBUMIN / ALKALINE PHOSPHATASE / ASPARTATE AMINOTRANSFERASE / BLOOD UREA NITROGEN / CARBON DIOXIDE / CHLORIDE / CHOLESTEROL / CREATINE PHOSPHOKINASE / CREATININE / GLUCOSE / LACTATE DEHYDROGENASE / LIPASE / PHOSPHORUS / POTASSIUM / SODIUM / TOTAL BILIRUBIN / TOTAL PROTEIN / URIC ACID: tissue Plasma
smiles,measurement,setting,value
Cc1cc(NS(=O)(=O)c2ccc(N)cc2)no1 [SULFAMETHOXAZOLE],ABSOLUTE BASOPHIL,"72 h, time 3 day",0 CELLS/uL
same,ABSOLUTE EOSINOPHIL,"72 h, time 3 day",124.33 CELLS/uL
same,ABSOLUTE LYMPHOCYTE,"72 h, time 3 day",12097 CELLS/uL
same,ABSOLUTE MONOCYTE,"72 h, time 3 day",47.67 CELLS/uL
same,ABSOLUTE SEGMENTED NEUTROPHIL,"72 h, time 3 day",1331 CELLS/uL
same,BASOPHIL,"72 h, time 3 day",0%
same,EOSINOPHIL,"72 h, time 3 day",1%
same,ERYTHROCYTE COUNT,"72 h, time 3 day",5.34 x10E6/uL
same,HEMATOCRIT,"72 h, time 3 day",34.63%
same,HEMOGLOBIN,"72 h, time 3 day",13.53 G/DL
same,LEUKOCYTE COUNT,"72 h, time 3 day",13.6 x10E3/uL
same,LYMPHOCYTE,"72 h, time 3 day",89%
same,MEAN CORPUSCULAR HEMOGLOBIN,"72 h, time 3 day",25.37 pg
same,MEAN CORPUSCULAR HEMOGLOBIN CONCENTRATION,"72 h, time 3 day",39.07 G/DL
same,MEAN CORPUSCULAR VOLUME,"72 h, time 3 day",64.87 fL
same,MONOCYTE,"72 h, time 3 day",0.33%
same,NEUTROPHIL,"72 h, time 3 day",9.67%
same,NUCLEATED RED BLOOD CELLS,"72 h, time 3 day",0 /100WBC
same,PLATELET COUNT,"72 h, time 3 day",1220 x10E3/uL
same,ALANINE AMINOTRANSFERASE,"72 h, time 3 day",53.33 u/L
same,ALBUMIN,"72 h, time 3 day",4.13 G/DL
same,ALKALINE PHOSPHATASE,"72 h, time 3 day",298.33 u/L
same,ASPARTATE AMINOTRANSFERASE,"72 h, time 3 day",88.67 u/L
same,BLOOD UREA NITROGEN,"72 h, time 3 day",16 mg/dL
same,CARBON DIOXIDE,"72 h, time 3 day",26 mmol/L
same,CHLORIDE,"72 h, time 3 day",101 MEQ/L
same,CHOLESTEROL,"72 h, time 3 day",79.67 mg/dL
same,CREATINE PHOSPHOKINASE,"72 h, time 3 day",356.33 u/L
same,CREATININE,"72 h, time 3 day",0.17 mg/dL
same,GLUCOSE,"72 h, time 3 day",141.33 mg/dL
same,LACTATE DEHYDROGENASE,"72 h, time 3 day",488.67 u/L
same,LIPASE,"72 h, time 3 day",10.67 u/L
same,PHOSPHORUS,"72 h, time 3 day",12.43 mg/dL
same,POTASSIUM,"72 h, time 3 day",6.92 MEQ/L
same,SODIUM,"72 h, time 3 day",145.43 MEQ/L
same,TOTAL BILIRUBIN,"72 h, time 3 day",0.2 mg/dL
same,TOTAL PROTEIN,"72 h, time 3 day",6.07 G/DL
same,URIC ACID,"72 h, time 3 day",1.63 mg/dL
same,ABSOLUTE BASOPHIL,"120 h, time 5 day",0 CELLS/uL
same,ABSOLUTE EOSINOPHIL,"120 h, time 5 day",0 CELLS/uL
same,ABSOLUTE LYMPHOCYTE,"120 h, time 5 day",14525.67 CELLS/uL
same,ABSOLUTE MONOCYTE,"120 h, time 5 day",88 CELLS/uL
same,ABSOLUTE SEGMENTED NEUTROPHIL,"120 h, time 5 day",1019.67 CELLS/uL
same,BASOPHIL,"120 h, time 5 day",0%
same,EOSINOPHIL,"120 h, time 5 day",0%
same,ERYTHROCYTE COUNT,"120 h, time 5 day",4.62 x10E6/uL
same,HEMATOCRIT,"120 h, time 5 day",29.8%
same,HEMOGLOBIN,"120 h, time 5 day",12.13 G/DL
same,LEUKOCYTE COUNT,"120 h, time 5 day",15.63 x10E3/uL
same,LYMPHOCYTE,"120 h, time 5 day",94%
same,MEAN CORPUSCULAR HEMOGLOBIN,"120 h, time 5 day",26.43 pg
same,MEAN CORPUSCULAR HEMOGLOBIN CONCENTRATION,"120 h, time 5 day",40.77 G/DL
same,MEAN CORPUSCULAR VOLUME,"120 h, time 5 day",64.9 fL
same,MONOCYTE,"120 h, time 5 day",0.33%
same,NEUTROPHIL,"120 h, time 5 day",5.67%
same,NUCLEATED RED BLOOD CELLS,"120 h, time 5 day",0 /100WBC
same,PLATELET COUNT,"120 h, time 5 day",1090.33 x10E3/uL
same,ALANINE AMINOTRANSFERASE,"120 h, time 5 day",53.33 u/L
same,ALBUMIN,"120 h, time 5 day",4.1 G/DL
same,ALKALINE PHOSPHATASE,"120 h, time 5 day",272.5 u/L
same,ASPARTATE AMINOTRANSFERASE,"120 h, time 5 day",97 u/L
same,BLOOD UREA NITROGEN,"120 h, time 5 day",17 mg/dL
same,CARBON DIOXIDE,"120 h, time 5 day",21 mmol/L
same,CHLORIDE,"120 h, time 5 day",107.5 MEQ/L
same,CHOLESTEROL,"120 h, time 5 day",73 mg/dL
same,CREATINE PHOSPHOKINASE,"120 h, time 5 day",1048.33 u/L
same,CREATININE,"120 h, time 5 day",0.21 mg/dL
same,GLUCOSE,"120 h, time 5 day",149 mg/dL
same,LACTATE DEHYDROGENASE,"120 h, time 5 day",184 u/L
same,LIPASE,"120 h, time 5 day",12 u/L
same,PHOSPHORUS,"120 h, time 5 day",10.23 mg/dL
same,POTASSIUM,"120 h, time 5 day",6.38 MEQ/L
same,SODIUM,"120 h, time 5 day",147.2 MEQ/L
same,TOTAL BILIRUBIN,"120 h, time 5 day",0.2 mg/dL
same,TOTAL PROTEIN,"120 h, time 5 day",5.97 G/DL
same,URIC ACID,"120 h, time 5 day",1.2 mg/dL
